# Measurements reported in patent US11401271B2, “Fused heterocyclic compound, pyrazole-ring-containing fused heterocyclic compound, agricultural composition containing thereof, and method of using the composition” (SOUTH CHINA AGRICULTURAL UNIVERSITY, priority 2017, dated 2022).
# System: Plutella xylostella
# Experiment: whole plant or invertebrate
# Type: in vivo
# Details: Plutella xylostella, read-out: Plutella xylostella Mortality (%) 500 ppm
# Method: (1) Insecticidal Activity on 2nd-Instar Larvae of Plutella xylostella.
# Plutella xylostella (L.) is a lepidoptera pest with a chewing mouthpart and is a common vegetable pest. The 2nd-instar larvae of Plutella xylostella were used as test objects and tested by using a leaf immersion feeding method.
# (§1) Operation process: Samples were weighed accurately, and respectively added with 200 μL of dimethyl sulfoxide to prepare 10 g/L mother liquor which was diluted into a concentration of 500 ppm with an aqueous solution containing 0.05% of Tween-80 during the test. A hole puncher with a diameter of 1.0 cm was used to make cleaned cabbage leaves into leaf discs. The leaf discs were immersed in a liquid medicine, taken out after 5 seconds, air-dried naturally, and transferred into a clean vessel. About 35 2nd-instar larvae of Plutella xylostella were put into the vessel and fed at a constant temperature of 28° C. Each concentration was repeated 3 times, and an aqueous solution containing 0.05% of Tween-80 was used as a control group. After being treated for 24 hours, a number of dead Plutella xylostella was counted, and a mortality (%) was calculated according to a formula that mortality (%)=(number of live larvae in the control group−number of treated live larvae)/number of live larvae in the control group*100%.
row,SMILES,mortality at 500 ppm
1,CC(=O)c1nn2c(c1[S+](C)[O-])NC(CC(=O)O)(C(=O)O)c1cc(C(F)(F)F)cc(Cl)c1-2 (centres unmarked) [Compound C47],77%
2,COC(=O)CC1(C(=O)OC)Nc2c([S+](C)[O-])c(C(C)=O)nn2-c2c(Cl)cc(C(F)(F)F)cc21 (centres unmarked) [Compound C48],76%
3,CC(=O)c1nn2c(c1[S+](C)[O-])NC(CC(N)=O)(C(N)=O)c1cc(C(F)(F)F)cc(Cl)c1-2 (centres unmarked) [Compound C49],87%
4,N#Cc1nn2c(c1-c1ccccc1C(F)(F)F)NC(CCl)(C(O)CO)c1cc(C(F)(F)F)cc(Cl)c1-2 (centres unmarked) [Compound C53],78%
5,Cc1cc(-c2c(C#N)nn3c2NC(C(O)CO)(C(F)(F)F)c2cc(C(F)(F)F)cc(Cl)c2-3)c(C)o1 (centres unmarked) [Compound C54],77%
6,N#Cc1nn2c(c1[S+]([O-])C(F)(F)F)NC(CCl)(C(O)CO)c1cc(C(F)(F)F)cc(Cl)c1-2 (centres unmarked) [Compound C55],88%
7,N#Cc1nn2c(c1[S+]([O-])C(F)(F)F)NC(C(O)CO)(C(F)(F)F)c1cc(C(F)(F)F)cc(Cl)c1-2 (centres unmarked) [Compound C57],78%
8,CC[S+]([O-])c1c(C#N)nn2c1NC(/C=C/C(=O)OC)(CC#N)c1cc(C(F)(F)F)cc(Cl)c1-2 (centres unmarked) [Compound C59],100%
9,COC(=O)/C=C/C1(CC#N)Nc2c([S+](C)[O-])c(C(C)=O)nn2-c2c(Cl)cc(C(F)(F)F)cc21 (centres unmarked) [Compound C60],90%
10,CCc1nn2c(c1Br)NC(/C=C\C(=O)OC)(/C=C/C(=O)OC)c1cc(C(F)(F)F)cc(Cl)c1-2 (centres unmarked) [Compound C63],98%

# System: Spodoptera exigua
# Experiment: whole plant or invertebrate
# Type: in vivo
# Details: Spodoptera exigua, 24 h, read-out: Spodoptera exigua Mortality (%) 500 ppm
# Method: (2) Insecticidal Activity on 2nd-Instar Larvae of Spodoptera exigua.
# Spodoptera exigua is a lepidoptera pest with a chewing mouthpart and is a common vegetable pest. The 2nd-instar larvae of Spodoptera exigua were used as test objects and tested by using a leaf immersion feeding method.
# as §1, with “μL,” for “μL”, “2nd -instar” for “2nd-instar”, “Spodoptera exigua” for “Plutella xylostella”, “group −number” for “group−number”, “group * 100%.” for “group*100%.”
row,SMILES,mortality at 500 ppm
1,CC(=O)c1nn2c(c1[S+](C)[O-])NC(CC(=O)O)(C(=O)O)c1cc(C(F)(F)F)cc(Cl)c1-2 (centres unmarked) [Compound C47],86%
2,COC(=O)CC1(C(=O)OC)Nc2c([S+](C)[O-])c(C(C)=O)nn2-c2c(Cl)cc(C(F)(F)F)cc21 (centres unmarked) [Compound C48],85%
3,CC(=O)c1nn2c(c1[S+](C)[O-])NC(CC(N)=O)(C(N)=O)c1cc(C(F)(F)F)cc(Cl)c1-2 (centres unmarked) [Compound C49],89%
4,N#Cc1nn2c(c1-c1ccccc1C(F)(F)F)NC(CCl)(C(O)CO)c1cc(C(F)(F)F)cc(Cl)c1-2 (centres unmarked) [Compound C53],89%
5,Cc1cc(-c2c(C#N)nn3c2NC(C(O)CO)(C(F)(F)F)c2cc(C(F)(F)F)cc(Cl)c2-3)c(C)o1 (centres unmarked) [Compound C54],78%
6,N#Cc1nn2c(c1[S+]([O-])C(F)(F)F)NC(CCl)(C(O)CO)c1cc(C(F)(F)F)cc(Cl)c1-2 (centres unmarked) [Compound C55],80%
7,N#Cc1nn2c(c1[S+]([O-])C(F)(F)F)NC(C(O)CO)(C(F)(F)F)c1cc(C(F)(F)F)cc(Cl)c1-2 (centres unmarked) [Compound C57],76%
8,CC[S+]([O-])c1c(C#N)nn2c1NC(/C=C/C(=O)OC)(CC#N)c1cc(C(F)(F)F)cc(Cl)c1-2 (centres unmarked) [Compound C59],90%
9,COC(=O)/C=C/C1(CC#N)Nc2c([S+](C)[O-])c(C(C)=O)nn2-c2c(Cl)cc(C(F)(F)F)cc21 (centres unmarked) [Compound C60],92%
10,CCc1nn2c(c1Br)NC(/C=C\C(=O)OC)(/C=C/C(=O)OC)c1cc(C(F)(F)F)cc(Cl)c1-2 (centres unmarked) [Compound C63],90%

# System: Aphis craccivora
# Experiment: whole plant or invertebrate
# Type: in vivo
# Details: Aphis craccivora, 24 h, read-out: Aphis craccivora Mortality (%) 500 ppm
# Method: (3) Insecticidal Activity on Aphid Adults.
# Aphid is a homoptera pest with a piercing-sucking mouthpart and is a common vegetable pest. Aphis craccivora were taken as test objects and tested by using an impregnation method.
# Operation process: Samples were weighed accurately, and respectively added with 200 μL of dimethyl sulfoxide to prepare 10 g/L mother liquor which was diluted into a concentration of 500 ppm with an aqueous solution containing 0.05% of Tween-80 during the test. After the wingless Aphis craccivora adults stably sucked on bean sprouts, the wingless Aphis craccivora adults together with the bean sprouts were immersed into a liquid medicine with a concentration of 500 ppm, taken out after 5 seconds, air-dried naturally, transferred into a clean vessel, and fed at a constant temperature of 23° C. Each concentration was repeated 3 times, and an aqueous solution containing 0.05% of Tween-80 was used as a control group. After being treated for 24 hours, a number of dead Aphis craccivora was counted, and a mortality (%) was calculated according to a formula that mortality (%)=(number of live Aphis craccivora in the control group−number of treated live Aphis craccivora)/number of live Aphis craccivora in the control group*100%.
row,SMILES,mortality at 500 ppm
1,CC(=O)c1nn2c(c1[S+](C)[O-])NC(CC(=O)O)(C(=O)O)c1cc(C(F)(F)F)cc(Cl)c1-2 (centres unmarked) [Compound C47],80%
2,COC(=O)CC1(C(=O)OC)Nc2c([S+](C)[O-])c(C(C)=O)nn2-c2c(Cl)cc(C(F)(F)F)cc21 (centres unmarked) [Compound C48],79%
3,CC(=O)c1nn2c(c1[S+](C)[O-])NC(CC(N)=O)(C(N)=O)c1cc(C(F)(F)F)cc(Cl)c1-2 (centres unmarked) [Compound C49],90%
4,N#Cc1nn2c(c1-c1ccccc1C(F)(F)F)NC(CCl)(C(O)CO)c1cc(C(F)(F)F)cc(Cl)c1-2 (centres unmarked) [Compound C53],90%
5,Cc1cc(-c2c(C#N)nn3c2NC(C(O)CO)(C(F)(F)F)c2cc(C(F)(F)F)cc(Cl)c2-3)c(C)o1 (centres unmarked) [Compound C54],87%
6,N#Cc1nn2c(c1[S+]([O-])C(F)(F)F)NC(CCl)(C(O)CO)c1cc(C(F)(F)F)cc(Cl)c1-2 (centres unmarked) [Compound C55],91%
7,N#Cc1nn2c(c1[S+]([O-])C(F)(F)F)NC(C(O)CO)(C(F)(F)F)c1cc(C(F)(F)F)cc(Cl)c1-2 (centres unmarked) [Compound C57],80%
8,CC[S+]([O-])c1c(C#N)nn2c1NC(/C=C/C(=O)OC)(CC#N)c1cc(C(F)(F)F)cc(Cl)c1-2 (centres unmarked) [Compound C59],100%
9,COC(=O)/C=C/C1(CC#N)Nc2c([S+](C)[O-])c(C(C)=O)nn2-c2c(Cl)cc(C(F)(F)F)cc21 (centres unmarked) [Compound C60],100%
10,CCc1nn2c(c1Br)NC(/C=C\C(=O)OC)(/C=C/C(=O)OC)c1cc(C(F)(F)F)cc(Cl)c1-2 (centres unmarked) [Compound C63],96%

# System: Solenopsis invicta
# Experiment: whole plant or invertebrate
# Type: in vivo
# Details: Solenopsis invicta, 24 h, read-out: Solenopsis invicta Mortality (%) 100 ppm 24 h, 100 ppm; 24 h; water test tube poison-feeding
# Method: (4) Insecticidal Activity on Solenopsis invicta.
# As a hymenoptera pests and a social insect, Solenopsis invicta is one of the most destructive invasive organisms. Solenopsis invicta were used as test objects and tested by using a water test tube poison-feeding method.
# Operation process: Samples were weighed accurately, and respectively added with 200 μL of dimethyl sulfoxide to prepare 10 g/L mother liquor which was diluted into a concentration of 100 ppm with a mixed aqueous solution containing 0.05% of Tween-80 and 5% of honey during the test. […] The raising test tube was placed in a raising box horizontally, and a small amount of ham sausages were added to the raising test tube as food to raise the Solenopsis invicta at a constant temperature of 25° C. After being treated for 24 hours and 72 hours, a number of live Solenopsis invicta and a number of dead Solenopsis invicta were counted, and a mortality (%) was calculated according to a formula that mortality (%)=(number of live Solenopsis invicta in the control group−number of treated live Solenopsis invicta)/number of live Solenopsis invicta in the control group*100%.
row,SMILES,mortality at 100 ppm
1,CC(=O)c1nn2c(c1[S+](C)[O-])NC(CC(=O)O)(C(=O)O)c1cc(C(F)(F)F)cc(Cl)c1-2 (centres unmarked) [Compound C47],27%
2,COC(=O)CC1(C(=O)OC)Nc2c([S+](C)[O-])c(C(C)=O)nn2-c2c(Cl)cc(C(F)(F)F)cc21 (centres unmarked) [Compound C48],26%
3,CC(=O)c1nn2c(c1[S+](C)[O-])NC(CC(N)=O)(C(N)=O)c1cc(C(F)(F)F)cc(Cl)c1-2 (centres unmarked) [Compound C49],20%
4,N#Cc1nn2c(c1-c1ccccc1C(F)(F)F)NC(CCl)(C(O)CO)c1cc(C(F)(F)F)cc(Cl)c1-2 (centres unmarked) [Compound C53],28%
5,Cc1cc(-c2c(C#N)nn3c2NC(C(O)CO)(C(F)(F)F)c2cc(C(F)(F)F)cc(Cl)c2-3)c(C)o1 (centres unmarked) [Compound C54],17%
6,N#Cc1nn2c(c1[S+]([O-])C(F)(F)F)NC(CCl)(C(O)CO)c1cc(C(F)(F)F)cc(Cl)c1-2 (centres unmarked) [Compound C55],19%
7,N#Cc1nn2c(c1[S+]([O-])C(F)(F)F)NC(C(O)CO)(C(F)(F)F)c1cc(C(F)(F)F)cc(Cl)c1-2 (centres unmarked) [Compound C57],20%
8,CC[S+]([O-])c1c(C#N)nn2c1NC(/C=C/C(=O)OC)(CC#N)c1cc(C(F)(F)F)cc(Cl)c1-2 (centres unmarked) [Compound C59],29%
9,COC(=O)/C=C/C1(CC#N)Nc2c([S+](C)[O-])c(C(C)=O)nn2-c2c(Cl)cc(C(F)(F)F)cc21 (centres unmarked) [Compound C60],25%
10,CCc1nn2c(c1Br)NC(/C=C\C(=O)OC)(/C=C/C(=O)OC)c1cc(C(F)(F)F)cc(Cl)c1-2 (centres unmarked) [Compound C63],29%

# Same assay, conditions: Solenopsis invicta, 72 h, read-out: Solenopsis invicta Mortality (%) 100 ppm 72 h, 100 ppm; 72 h; water test tube poison-feeding
row,SMILES,mortality at 100 ppm
1,CC(=O)c1nn2c(c1[S+](C)[O-])NC(CC(=O)O)(C(=O)O)c1cc(C(F)(F)F)cc(Cl)c1-2 (centres unmarked) [Compound C47],87%
2,COC(=O)CC1(C(=O)OC)Nc2c([S+](C)[O-])c(C(C)=O)nn2-c2c(Cl)cc(C(F)(F)F)cc21 (centres unmarked) [Compound C48],86%
3,CC(=O)c1nn2c(c1[S+](C)[O-])NC(CC(N)=O)(C(N)=O)c1cc(C(F)(F)F)cc(Cl)c1-2 (centres unmarked) [Compound C49],81%
4,N#Cc1nn2c(c1-c1ccccc1C(F)(F)F)NC(CCl)(C(O)CO)c1cc(C(F)(F)F)cc(Cl)c1-2 (centres unmarked) [Compound C53],97%
5,Cc1cc(-c2c(C#N)nn3c2NC(C(O)CO)(C(F)(F)F)c2cc(C(F)(F)F)cc(Cl)c2-3)c(C)o1 (centres unmarked) [Compound C54],84%
6,N#Cc1nn2c(c1[S+]([O-])C(F)(F)F)NC(CCl)(C(O)CO)c1cc(C(F)(F)F)cc(Cl)c1-2 (centres unmarked) [Compound C55],83%
7,N#Cc1nn2c(c1[S+]([O-])C(F)(F)F)NC(C(O)CO)(C(F)(F)F)c1cc(C(F)(F)F)cc(Cl)c1-2 (centres unmarked) [Compound C57],89%
8,CC[S+]([O-])c1c(C#N)nn2c1NC(/C=C/C(=O)OC)(CC#N)c1cc(C(F)(F)F)cc(Cl)c1-2 (centres unmarked) [Compound C59],100%
9,COC(=O)/C=C/C1(CC#N)Nc2c([S+](C)[O-])c(C(C)=O)nn2-c2c(Cl)cc(C(F)(F)F)cc21 (centres unmarked) [Compound C60],92%
10,CCc1nn2c(c1Br)NC(/C=C\C(=O)OC)(/C=C/C(=O)OC)c1cc(C(F)(F)F)cc(Cl)c1-2 (centres unmarked) [Compound C63],98%
